Results taken from patent publication US4978665A, “3(2H)pyridazinone, and antagonistic agent against SRS-A containing it” (Nissan Chemical Industries Ltd., priority 1987, dated 1990).

Columns and labels:
LTD4 = LTD4 antagonism in guinea-pig trachea (in vitro test); assay type: cell-based; settings: Cavia porcellus, 0.5 h, LTD4 2×10^-8 g/ml, isolated guinea-pig trachea; for inhibition at 1 µg/mL: 10^-6 g/ml test compound; for inhibition at 0.1 µg/mL: 10^-7 g/ml test compound, read-out: LTD4 Antagonism (%) (in parenthesis)
Method: (§1) SRS-A is a mixture of leukotriene C4 (hereinafter referred to as LTC4), leukotriene D4 (hereinafter referred to as LTD4), leukotriene E4 (hereinafter referred to as LTE4) and the like. Accordingly, antagonistic activities against SRS-A can be evaluated by one of the following two test methods:
LTD4 antagonism in guinea-pig trachea
Antagonism for LTD4 was determined in isolated male guinea-pig (300-400 g) trachea prepared as spiral strip. Tracheal preparations were suspended under 1 g tension in 10 ml organ baths containing 5 μM of indomethacin and they were incubated for 1 hr prior to use. Contractile responses to LTD4 (2×10^-8 g/ml) were obtained after the maximal response to histamine (10^- 4 M). Test compounds dissolved in 100% dimethyl sulfoxide were added to the organ baths (final concentration of 10^-6 g/ml or 10^-7 g/ml) 30 min prior to LTD4 addition, and then contractile responses to LTD4 were compared with those of control which was obtained from a paired trachea in the absence of test compounds. LTD4 -induced contractions were expressed as a percentage of the maximal response to histamine. The antagonism was determined as follows:
Antagonism (%)=(1.0 - % contraction in test/% contraction in control)×100
In parenthesis in Table 2, LTD4 antagonisms by test compounds at a concentration of 10^-7 g/ml are shown.

[1] = Acute toxicity test (lethal ratio, oral); assay type: in vivo, CD-1(ICR) strain male mice; settings: 1200 mg/kg oral; 7 days after administration; experimental number 5
Method: The lethal ratio was determined in CD-1(ICR) strain male mice (5 weeks old) at 7 days after the oral administration of test compounds.

SRS-A = assay: Effect on anaphylactic bronchoconstriction mediated by endogeneously liberated SRS-A in passively sensitized guinea-pig (in vivo test); settings: for Inhibition (%) of bronchoconstriction: 2 hrs before EA challenge; for inhibitory effects over the control (in words): oral administration, doses of Table 3, P<0.05
Excerpt: as §1
Effect on anaphylactic bronchoconstriction mediated by endogeneously liberated SRS-A in passively sensitized guinea-pig
Male guinea-pigs (350-450 g) were passively sensitized with intravenous (i.v.) injection of 0.125 ml rabbit anti-EA (egg albumin) serum (Capple Laboratories) 1 to 2 days preceding the experiment. Antigen-induced anaphylactic bronchoconstrictions mediated by endogeneously liberated SRS-A were measured by modified method of Konzett and Rossler (Arch. Exp. Path. Pharmak., 195, 71, 1940). Sensitized guinea-pigs were anaesthetized with intraperitoneal injection of urethane (1.5 g/kg). The right jugular vein was cannulated for the administration of the all agents and trachea was cannulated to record total pulmonary resistance. Guinea-pigs were artificially ventilated by a small animal respirator (Shinano, Model SN-480-7) set at a stroke volume of 4.5 ml and a rate of 50 breaths per min. The change in pulmonary resistance was measured with a pressure transducer (Nihon Kohden, Model TP-602T) connected to a T-tube on the tracheal cannula. The increase in air overflow volume was expressed as a percentage of the maximum bronchoconstriction obtained by clamping off the trachea. Following surgical preparation, the animals were pretreated with indomethacin (2 mg/kg, 10 min), pyrilamine (2 mg/kg, 6 min) and propranolol (0.1 mg/kg, 5 min) prior to the EA challenge (0.2 mg/kg). All test compounds were administered orally 2 hrs before the EA challenge. Inhibition (%) of bronchoconstriction was determined as follows: Inhibition (%)=(1.0 - % maximum bronchoconstriction in test/% maximum bronchoconstriction in control)×100. The maximum bronchoconstriction was 62±6% (Mean±S.E.M; n=6) and the number of test animals was 5-6.

Row | SMILES | inhibition at 1 µg/mL (LTD4) [%] | further results
1 | CCCOc1cc(CN(C)c2cn[nH]c(=O)c2Cl)ccc1OC [Compound No. 5] | 54 | 
2 | CCCCOc1cc(CN(C)c2cn[nH]c(=O)c2Cl)ccc1OC [Compound No. 7] | 50 | 
3 | CCCOc1cc(CNc2c([N+](=O)[O-])n[nH]c(=O)c2Cl)ccc1OC [Compound No. 22, 4-chloro-5-(3-n-propoxy-4-methoxybenzylamino)-6-nitro-3(2H)pyridazinone] | 59 | 
4 | CCCOc1cc(CNc2c(N)n[nH]c(=O)c2Cl)ccc1OC [Compound No. 23, 4-chloro-5-(3-n-propoxy-4-methoxybenzylamino)-6-amino-3(2H)pyridazinone] | 51 | 
5 | CCCCOc1cc(CNc2c(N)n[nH]c(=O)c2Br)ccc1OC [Compound No. 30, 4-bromo-5-(3-n-butoxy-4-methoxybenzylamino)-6-amino-3(2H)pyridazinone] | 38 | 
6 | CCCCCCOc1cc(CNc2c([N+](=O)[O-])n[nH]c(=O)c2Br)ccc1OC [Compound No. 33] | 93 | 
7 | CCOc1cc(CNc2c(OCC)nn(CC)c(=O)c2Br)ccc1OC [Compound No. 48] | 99 | 
8 | CCCOc1cc(CNc2c(OCC)nn(CC)c(=O)c2Cl)ccc1OC [Compound No. 50, 2-ethyl-4-chloro-5-(3-n-propoxy-4-methoxybenzylamino)-6-ethoxy-3(2H)pyridazinone] | 95 | 
9 | CCOc1cc(CNc2c(OC(C)C)nn(CC)c(=O)c2Cl)ccc1OC [Compound No. 51] | 94 | 
10 | CCOc1cc(CNc2c(OC(C)C)nn(CC)c(=O)c2Br)ccc1OC [Compound No. 52] | 100 | 
11 | CCCOc1cc(CNc2c(OC(C)C)nn(CC)c(=O)c2Cl)ccc1OC [Compound No. 53] | 100 | 
12 | C=CCOc1nn(CC)c(=O)c(Br)c1NCc1ccc(OC)c(OCC)c1 [Compound No. 56] | 100 | inhibition at 0.1 µg/mL (LTD4): 51%
13 | CCCOc1cc(CNc2c(OC(C)C)n[nH]c(=O)c2Cl)ccc1OC [Compound No. 67] | 100 | inhibition at 0.1 µg/mL (LTD4): 82%
14 | CCCCOc1cc(CNc2c(OCC)n[nH]c(=O)c2Cl)ccc1OC [Compound No. 68, 4-chloro-5-(3-n-butoxy-4-methoxybenzylamino)-6-ethoxy-3(2H)pyridazinone] | 92 | Lethal ratio: Death number [1]: 0; Inhibition (%) of bronchoconstriction (SRS-A; 10 mg/kg orally): 63%; Inhibition (%) of bronchoconstriction (SRS-A; 30 mg/kg orally): 51%; inhibitory effects over the control (in words) (SRS-A): significant inhibitory effects
15 | CCCCOc1cc(CNc2c(OC(C)C)n[nH]c(=O)c2Cl)ccc1OC [Compound No. 69] | 100 | inhibition at 0.1 µg/mL (LTD4): 83%; Lethal ratio: Death number [1]: 0; Inhibition (%) of bronchoconstriction (SRS-A; 30 mg/kg orally): 52%; inhibitory effects over the control (in words) (SRS-A): significant inhibitory effects
16 | CCCOc1cc(CNc2c(Cl)n[nH]c(=O)c2Cl)ccc1OC [Compound No. 71, 4,6-dichloro-5-(3-n-propoxy-4-methoxybenzylamino)-3(2H)pyridazinone] | 66 | 
17 | CCC(C)Oc1n[nH]c(=O)c(Cl)c1NCc1ccc(OC)c(OC)c1 (stereo not drawn) [Compound No. 89] | 96 | inhibition at 0.1 µg/mL (LTD4): 55%
18 | CCOc1cc(CNc2c(OC(C)c3ccccc3)n[nH]c(=O)c2Cl)ccc1OC (stereo not drawn) [Compound No. 91] | 100 | inhibition at 0.1 µg/mL (LTD4): 76%
19 | CCCSc1n[nH]c(=O)c(Cl)c1NCc1ccc(OC)c(OC)c1 [Compound No. 92, 4-chloro-5-(3,4-dimethoxybenzylamino)-6-n-propylmercapto-3(2H)pyridazinone] | 63 | 
20 | CCCc1c(OCC(O)COc2ccc3c(=O)cc(C(=O)O)oc3c2CCC)ccc(C(C)=O)c1O (stereo not drawn) [FPL-55712, reference compound] | 94 | inhibition at 0.1 µg/mL (LTD4): 48%
21 | COc1ccc(CN(C)c2cn[nH]c(=O)c2Br)cc1OCCc1ccccc1 [compound 10] | 66 | 
22 | CCCOc1cc(CNc2c([N+](=O)[O-])n[nH]c(=O)c2Br)ccc1OC [compound 27] | 72 | 
23 | COc1ccc(CNc2c([N+](=O)[O-])n[nH]c(=O)c2Cl)cc1OCCc1ccccc1 [compound 36] | 70 | 
24 | CCOc1cc(CNc2c(OC)nn(CC)c(=O)c2Cl)ccc1OC [compound 45] | 50 | 
25 | CCOc1cc(CNc2c(OCC)nn(CC)c(=O)c2Cl)ccc1OC [compound 46] | 73 | 

Row | SMILES | inhibition at 1 µg/mL (LTD4) [%] | further results
26 | CCOc1cc(CNc2c(OC)nn(CC)c(=O)c2Br)ccc1OC [compound 47] | 79 | 
27 | C=CCOc1nn(CC)c(=O)c(Cl)c1NCc1ccc(OC)c(OCCC)c1 [compound 54] | 95 | 
28 | C=CCOc1nn(CC)c(=O)c(Cl)c1NCc1ccc(OC)c(OCC)c1 [compound 55] | 81 | 
29 | CCCOc1cc(CNc2c(OCCC)nn(CC)c(=O)c2Cl)ccc1OC [compound 57] | 100 | inhibition at 0.1 µg/mL (LTD4): 37%
30 | C#CCOc1nn(CC)c(=O)c(Br)c1NCc1ccc(OC)c(OCC)c1 [compound 58] | 100 | inhibition at 0.1 µg/mL (LTD4): 40%
31 | CC=CCOc1nn(CC)c(=O)c(Br)c1NCc1ccc(OC)c(OCC)c1 [compound 60] | 100 | inhibition at 0.1 µg/mL (LTD4): 38%
32 | C=C(C)COc1nn(CC)c(=O)c(Br)c1NCc1ccc(OC)c(OCC)c1 [compound 61] | 96 | 
33 | COc1ccc(CNc2c(OC(C)C)n[nH]c(=O)c2Cl)cc1OC [compound 63] | 92 | 
34 | CCOc1cc(CNc2c(OCC)n[nH]c(=O)c2Cl)ccc1OC [compound 64] | 90 | 
35 | CCOc1cc(CNc2c(OC(C)C)n[nH]c(=O)c2Cl)ccc1OC [compound 65] | 96 | 
36 | CCCOc1cc(CNc2c(OCC)n[nH]c(=O)c2Cl)ccc1OC [compound 66] | 100 | inhibition at 0.1 µg/mL (LTD4): 48%
37 | CCOc1cc(CNc2c(Cl)n[nH]c(=O)c2Cl)ccc1OC [compound 70] | 66 | 
38 | CCCCCCOc1cc(CNc2c(OC(C)C)n[nH]c(=O)c2Cl)ccc1OC [compound 72] | 75 | 
39 | CCOc1cc(CN(C)c2c(OC)nn(CC)c(=O)c2Br)ccc1OC [compound 73] | 100 | 
40 | CCOc1cc(CN(C)c2c(OCC)nn(CC)c(=O)c2Br)ccc1OC [compound 74] | 100 | 
41 | CCCOc1cc(CNc2c(OCc3ccccc3)nn(CC)c(=O)c2Cl)ccc1OC [compound 75] | 77 | 
42 | CCCOc1cc(CNc2c(OCC)nn(C(C)C)c(=O)c2Cl)ccc1OC [compound 77] | 50 | 
43 | CCCOc1cc(CNc2c(OC(C)C)nn(C(C)C)c(=O)c2Cl)ccc1OC [compound 78] | 56 | 
44 | C=CCOc1nn(C(C)C)c(=O)c(Cl)c1NCc1ccc(OC)c(OCCC)c1 [compound 79] | 79 | 
45 | CCOc1cc(CNc2c(OC)n[nH]c(=O)c2Cl)ccc1OC [compound 80] | 100 | 
46 | CCOc1n[nH]c(=O)c(Cl)c1NCc1ccc(OC)c(OC)c1 [compound 84] | 59 | 
47 | COc1ccc(CNc2c(OCc3ccccc3)n[nH]c(=O)c2Cl)cc1OC [compound 85] | 85 | 
48 | CCOc1cc(CNc2c(OCc3ccccc3)n[nH]c(=O)c2Cl)ccc1OC [compound 86] | 100 | inhibition at 0.1 µg/mL (LTD4): 48%
49 | COc1ccc(CNc2c(OC(C)c3ccccc3)n[nH]c(=O)c2Cl)cc1OC (stereo not drawn) [compound 90] | 96 | inhibition at 0.1 µg/mL (LTD4): 70%
50 | COc1ccc(CNc2c(SCC(C)C)n[nH]c(=O)c2Cl)cc1OC [compound 94] | 68 | 
